Laboratory results taken from patent US20150196520A1, “METHOD AND PHARMACEUTICAL COMPOSITION FOR TREATING DERMATOPHYTOSIS” (priority 2012, published 2015).
Where two headings read alike, the source gives them in different places.

Key:
[1] = tested on: tinea unguium; test: Treatment of tinea unguium, case reports; assay type: in vivo, humans
[2] = tested on: T. mentagrophytes IFM 59813; test: CLSI broth microdilution drug-sensitivity test; assay type: cell-based, Trichophyton mentagrophytes
Protocol: (§1) The antimicrobial activity of the pharmaceutical composition for dermatomycosis according to the present invention was evaluated through drug-susceptibility tests against major pathogenic fungi performed in compliance with the guidelines of the Clinical Laboratory Standards Institute (CLSI), USA. The pathogenic fungi selected were genus Tricophyton (T. rubrum, T. mentagrophytes, T. tonsurans), genus Microsporum (M. gypseum), genus Epidermophyton (E. floccosum), genus Candida (C. albicans), genus Aspergillus (A. fumigatus), and genus Cryptococcus (C. neoformans). […] In the drug-susceptibility tests, Mg ions and Ca ions necessary for conidia (spores) of the fungus to germinate growth were included in the nutrient medium.
(§2) The antifungal activity of the compounds of the present invention was evaluated by performing drug-sensitivity tests against various pathogenic fungi. The testing method was a broth microdilution method in conformance with the guidelines of the Clinical Laboratory Standards Institute (CLSI), USA.

[3] = tested on: tinea corporis; test: Topical treatment of tinea corporis, case reports; assay type: in vivo, humans; conditions: for healing of tinea corporis: Example 10: 0.01% test solutions
Excerpt: (§3) The compounds of the present invention were investigated with respect to the treatment of dermatomycosis affecting humans. […] The cases of tinea used in the investigation involved selection of various types of tinea such as vesicular-type tinea, interdigital-type tinea, hyperkeratotic tinea, tinea corporis, tinea unguium, etc.
(§4) The dermatophytes that cause dermatophytosis, a typical form of dermatomycosis, are mainly Trichophyton rubrum and Trichophyton mentagrophytes. […] This confirmation of dermatophytes involved planting a sample of skin or nail of an area affected with tinea in a Candida nutrient medium (Nissui Pharmaceutical Co., Ltd.), isolating the dermatophytes that grow, and then confirming the dermatophytes through gene analysis or observation of morphology. A more detailed description of the fungus identification is provided in the examples.
A 1% test solution of ethylenediaminetetraacetic acid trisodium salt prepared in the same manner as Example 6 was applied by spraying once a day onto an area, approximately 5 cm wide and 3 cm long, of a chest affected by tinea corporis, which was denoted by flaring redness.
To 119 mg of ethylenediaminetetraacetic acid tetrasodium salt tetrahydrate was added 20% ethanol to prepare 1 L of 0.01% test solution. This test solution was applied by spraying, three times a day, to tinea corporis denoted by red flaring ridges that had occurred on the thigh.

[4] = tested on: M. furfur; test: Malassezia drug sensitivity test (Sugita et al., mLNA medium); assay type: cell-based
Protocol: as §1
(§5) The antifungal activity of the compounds of the present invention against Malassezia spp. was evaluated in drug sensitivity tests against human-related genus Malassezia species, performed in compliance with the methodology of Sugita et al. (2005). The test drug and mLNA nutrient medium were added to the wells of a 24-well microtiter plate with a total quantity of 2 mL. A 50 μL microbe suspension with a concentration of approximately 1×10^4 cell/mL was added to the medium, which was cultured aerobically for 7 days at 32° C. In comparison to the control (no test drug), the density required to completely prevent growth was set as the minimum inhibitory concentration (MIC).

[5] = tested on: C. neoformans IFM5807; test: CLSI broth microdilution drug-sensitivity test; assay type: cell-based
Protocol: as §1, §2

[6] = tested on: A. fumigatus IFM4942; test: CLSI broth microdilution drug-sensitivity test; assay type: cell-based
Protocol: as §1, §2

[7] = tested on: C. albicans IFM 5740; test: CLSI broth microdilution drug-sensitivity test; assay type: cell-based
Protocol: as §1, §2

[8] = tested on: M. gypseum IFM 59816; test: CLSI broth microdilution drug-sensitivity test; assay type: cell-based
Protocol: as §1, §2

[9] = tested on: T. rubrum IFM 59814; test: CLSI broth microdilution drug-sensitivity test; assay type: cell-based, Trichophyton rubrum
Protocol: as §1, §2

[10] = tested on: E. floccosum IFM 53345; test: CLSI broth microdilution drug-sensitivity test; assay type: cell-based, Epidermophyton floccosum
Protocol: as §1, §2

[11] = tested on: tinea glabrosa; test: Topical treatment of tinea glabrosa, case reports; assay type: in vivo, humans
Protocol: Dermatomycosis includes dermatophytosis, cutaneous candidiasis, and malasseziosis. As time progresses with these diseases, a variety of fungi will parasitize the site.
To 2.4 g of calcium benzoate trihydrate was added water to prepare 200 g of a 1% test solution. This solution was atomized twice a day for tinea glabrosa denoted by redness on the abdominal region.
This red papule was treated twice a day with a 2% solution of ethylenediaminetetraacetic acid trisodium salt prepared in the same manner as in Example 5.

[12] = tested on: interdigital tinea; conditions: Example 7: 2% test solution sprayed once daily between toes; Trichophyton rubrum
[13] = JECFA evaluation of food additives; cited from earlier work
[14] = tested on: M. slooffiae; test: organism not typed; conditions: 168 h
Protocol: as §1, §5

[15] = tested on: M. obtusa; test: organism not typed; conditions: 168 h
Protocol: as §1, §5

[16] = tested on: M. restricta; test: organism not typed; conditions: 168 h
Protocol: as §1, §5

[17] = tested on: M. dermatitis; test: organism not typed; conditions: 168 h
Protocol: as §1, §5

[18] = tested on: M. japonica; test: organism not typed; conditions: 168 h
Protocol: as §1, §5

[19] = tested on: M. sympodialis; test: organism not typed; conditions: 168 h
Protocol: as §1, §5

[20] = tested on: M. yamatoensis; test: organism not typed; conditions: 168 h
Protocol: as §1, §5

[21] = tested on: Malassezia infection; conditions: Example 14: 1% test solution applied twice a day, lower-left abdomen
[22] = tested on: hyperkeratotic tinea; test: Topical treatment of hyperkeratotic tinea, case reports; assay type: in vivo, humans
Excerpt: as §3, §4

[23] = tested on: M. globosa; test: microbe, parasite or virus in culture; conditions: Malassezia globosa, 168 h
Protocol: as §1
as §5, with “In comparison to the control (no test drug), the density required to completely prevent growth was set as the minimum inhibitory concentration (MIC).” left out

[24] = tested on: small red papules
Excerpt: Dermatophyte was isolated from the papules in this case, and was confirmed through gene analysis to be Trichophyton mentagrophytes.

[25] = T. mentagrophytes IFM 59813, broth microdilution
[26] = Trichophyton mentagrophytes, IFM59813
[27] = Cryptococcus neoformans, IFM5807
[28] = Epidermophyton floccosum, IFM53345
[29] = Example 11: 2% test solution, big toe immersed in fingerstall, Trichophyton rubrum

CCC(C)n1ncn(-c2ccc(N3CCN(c4ccc(OCC5COC(Cn6cncn6)(c6ccc(Cl)cc6Cl)O5)cc4)CC3)cc2)c1=O (stereo not drawn) [Itrizole, reference compound]
outcome of oral therapy of tinea unguium ([1]; Example 16: oral therapy, left-foot big-toe toenail): ineffective

O=C([O-])c1ccccc1.O=C([O-])c1ccccc1.[Mg+2] [magnesium benzoate]
MIC [2, 25]: 780 µg/mL

C/C=C/C=C/C(=O)[O-].[Na+] [sodium sorbate]
MIC ([2]; Trichophyton mentagrophytes, IFM59813, T. mentagrophytes IFM 59813, broth microdilution, read-out: MIC): 780 µg/mL

O=C([O-])c1ccccc1.[K+] [potassium benzoate]
MIC [2, 25]: 780 µg/mL

O=C([O-])CN(CCN(CC(=O)[O-])CC(=O)O)CC(=O)[O-].[K+].[K+].[K+] [ethylenediaminetetraacetic acid tripotassium salt]
MIC [2, 26]: 78 µg/mL

C/C=C/C=C/C(=O)[O-].[K+] [potassium sorbate]
healing of tinea corporis [3]: heal tinea corporis | MIC ([4]; Malassezia furfur, 168 h): 310 µg/mL | MIC [5, 27]: 200 µg/mL | MIC ([6]; Aspergillus fumigatus, IFM4942): 780 µg/mL | MIC ([7]; Candida albicans, IFM5740): 3100 µg/mL | MIC ([8]; Nannizzia gypsea, IFM59816): 780 µg/mL | MIC ([9]; Trichophyton rubrum, IFM59814): 780 µg/mL | MIC [2, 26]: 390 µg/mL | MIC [10, 28]: 200 µg/mL | time until healthy nail regained ([1]; Example 13: 1% test solution (1% glycerin, 15% ethanol), big-toe toenail immersed 1 hour a day): about 9 months

O=C([O-])c1ccccc1.O=C([O-])c1ccccc1.[Ca+2] [calcium benzoate]
curative effect against tinea of the skin ([11]; 1% aqueous solution (Example 15)): showed a curative effect | time until skin symptoms disappeared (tinea eliminated) ([11]; Example 15: 1% test solution in water atomized twice a day, abdominal region): about two

O=C([O-])CN(CCN(CC(=O)[O-])CC(=O)[O-])CC(=O)[O-].[Na+].[Na+].[Na+].[Na+] [ethylenediaminetetraacetic acid tetrasodium salt]
time until redness disappeared (tinea cured) ([3]; Example 10: 0.01% test solution in 20% ethanol sprayed three times a day, thigh): approximately 2 weeks | MIC [2, 26]: 39 µg/mL | time until skin symptoms disappeared and healthy skin returned [12]: approximately 2 months | time until healthy nail grew from the nail base [1, 29]: approximately 2 months | time until recovery complete with a healthy nail [1, 29]: 6 months

O=C([O-])CN(CCN(CC(=O)[O-])CC(=O)[O-])CC(=O)[O-].[Mg+2].[Na+].[Na+] [ethylenediaminetetraacetic acid magnesium disodium salt]
MIC [2, 26]: 78 µg/mL

O=C([O-])c1ccccc1.[Na+] [sodium benzoate]
healing of tinea corporis [3]: heal tinea corporis | MIC ([4]; M. furfur, 7 days at 32° C., complete prevention of growth): 310 µg/mL | MIC ([5]; C. neoformans IFM5807, broth microdilution): 1600 µg/mL | MIC ([6]; A. fumigatus IFM4942, broth microdilution): 3100 µg/mL | MIC ([7]; C. albicans IFM 5740, broth microdilution): 6300 µg/mL | MIC ([8]; M. gypseum IFM 59816, broth microdilution): 1600 µg/mL | MIC ([9]; T. rubrum IFM 59814, broth microdilution): 390 µg/mL | MIC [2, 25]: 200 µg/mL | MIC ([10]; E. floccosum IFM 53345, broth microdilution): 200 µg/mL | time until healthy nail restored ([1]; Example 13: 1% test solution in 20% ethanol, thumb nail soaked in fingerstall one day, 10 times): about 3 months

O=C([O-])CN(CCN(CC(=O)O)CC(=O)O)CC(=O)[O-].[Na+].[Na+] [ethylenediaminetetraacetic acid disodium salt]
healing of tinea corporis [3]: heal tinea corporis | MIC [2, 26]: 78 µg/mL | permissible daily intake [13]: ≤ 2.5 mg per 1 kg of body weight

O=C([O-])CN(CCN(CC(=O)[O-])CC(=O)O)CC(=O)[O-].[Na+].[Na+].[Na+] [ethylenediaminetetraacetic acid trisodium salt]
time until red flaring disappeared and healthy skin returned ([3]; Example 8: 1% test solution sprayed once a day, chest, Trichophyton mentagrophytes): approximately 2 weeks | time until skin symptoms disappeared or cicatrized (tinea corporis healed) ([3]; Example 9: 1% test solution sprayed once a day, left thigh, considered M. canis): approximately one | healing of tinea corporis [3]: heal tinea corporis | MIC [14]: 63 µg/mL | MIC [15]: 31 µg/mL | MIC [16]: 31 µg/mL | MIC [17]: 31 µg/mL | MIC [18]: 63 µg/mL | MIC [19]: 63 µg/mL | MIC [20]: 63 µg/mL | MIC ([4]; Malassezia furfur, 168 h): 63 µg/mL | time until light-brown area disappeared [21]: approximately 3 weeks | MIC [5, 27]: 9.8 µg/mL | MIC ([6]; Aspergillus fumigatus, IFM4942): 9.8 µg/mL | MIC ([7]; Candida albicans, IFM5740): 0.2 µg/mL | MIC ([8]; Nannizzia gypsea, IFM59816): 78 µg/mL | MIC ([9]; Trichophyton rubrum, IFM59814): 39 µg/mL | time until hyperkeratotic-type tinea eliminated and clean skin recovered ([22]; Example 5: 2% test solution (glycerin, 15% ethanol), sprayed twice daily, sole of foot, T. mentagrophytes and Candida isolated): approximately 2 months | time until tinea eliminated and healthy skin returned ([22]; Example 6: 1% test solution, foot immersed 1 hour a day): about one and a half | time until infected area entirely replaced by healthy skin ([22]; Example 17: 2% test solution sprayed twice a day, base of toes to arch, Trichophyton rubrum): approximately 6 months | time until complete recovery of healthy skin ([22]; Example 21: 5% test solution sprayed twice a day, left and right heels, Trichophyton rubrum): 3 months | MIC [2, 26]: 78 µg/mL | MIC [10, 28]: 78 µg/mL | time until red papules cured completely ([11]; Example 23: 2% solution once or twice a day, thigh, abdomen, breast or back, Aspergillus tubingensis, Basidiomycete and other fungi): 1-2 weeks | time until complete cure of red papule ([11]; Example 23: 2% solution twice a day, back of head, Aspergillus japonicus): two | MIC [23]: 63 µg/mL | time until papules disappeared, completely healed ([24]; Example 18: 2% test solution sprayed twice a day, scalp at back of head): 2 weeks | time until papules disappeared, completely healed ([24]; Example 19: 2% test solution sprayed twice a day, back of right thigh, Trichophyton mentagrophytes): 10 days | time until healthy skin and nail recovered ([1]; Example 12: 2% test solution, little finger soaked in fingerstall at bedtime, T. mentagrophytes and Candida): 2 months | outcome of tinea unguium treatment ([1]; Example 16: 2% test solution sprayed twice a day, big-toe toenail refractory to oral Itrizole): curing the tinea | time until tinea unguium cured ([1]; Example 20: 3% test solution sprayed twice a day, little-toe toenail, Trichophyton rubrum): approximately 8 months | time until healthy nail recovered ([1]; Example 22: 10% test solution in water applied once a day, right thumb nail, Trichophyton rubrum): about one | time until healthy nail restored ([1]; Example 23: 20% test solution (glycerin, water) applied twice a day, right thumbnail, Trichophyton rubrum): about 1 year
